A word on the logD: it is the decadic logarithm of the distribution of all forms, ionised or not, between an organic phase and buffer at a given pH. Read a high logD as higher lipophilicity. As usually defined, the EC50 is the concentration needed to bring the measured effect to its halfway point. Usually Papp stands for a coefficient for how fast a substance crosses the barrier. High values mean fast passage, low ones slow passage. One may read the solubility as how much of the substance goes into solution per volume. Low readings indicate a poorly soluble substance, high ones a readily soluble substance. One may read the Ki as the equilibrium dissociation constant of an inhibitor or competing ligand from its target.

The values below come from patent US20250032527A1, “MEDICAL USE OF N4-HYDROXY CITICOLINE COMPOUNDS” (IMMUNIC AG, priority 2021, published 2025).

The structures appear in SMILES notation. Values after ≈ are worked out from the molar mass of the structure shown. Structures can show the parent of a compound that is named as a salt. Where two headings read alike, the source gives them in different places.

Data set [1] in a line: Mouse pharmacokinetics, blood levels after single oral dose. Format: in vivo, female C57BL/6 mice. On the procedure:
The present study aimed at the determination of pharmacokinetic parameters of Example 2 and it's metabolites (NHC, NHC-MP, NHC-DP and NHC-TP) in blood after single dose oral administration of 96.5 μmol/kg to female C57BL/6 mice (body weight 20 to 21 g). Blood samples were obtained from the retrobulbar venous plexus into Li-Heparin tubes (Minivette POCT, […]). The vehicle for preparation of the dose formulations was PBS. The samples were analysed by high resolution LC-MS at Pharmacelsus GmbH, Germany.

For data set [2] the following is noted: pH 7.4.
For data set [3] the following is noted: pH 7.4. The source holds these as a separate data set.
Data set [4] in a line: in vitro. The conditions noted are these: human.
Data set [5] concerns SARS-COV-2. Briefly: microbe, parasite or virus in culture. The conditions noted are these: for SI: SARS-COV-2, CC50/EC50; for EC50: Severe acute respiratory syndrome coronavirus 2. In kind it is cell-based.
The subject of data set [6] is RSV A2. Briefly: RSV virus titers by endpoint titration (CCID50), mono and combination. Format: cell-based. Particulars: MA-104 cells, virus control 4.0.
Data set [7] in a line: Microsomal stability. Format: in vitro ADME. Particulars: compared to non-deuterated matched pair C26.
In data set [8] the test system is HRV-14. Briefly: HRV-14 virus titers by endpoint titration (CCID50), mono and combination. In kind it is cell-based. Particulars: Hela cells, virus control 6.7.
The nature of data set [9]: A-B permeability (Caco-2, pH 6.5/7.4). Particulars: human, A-B, Caco-2, pH 6.5/7.4, test conc. 1.0E−05M.
The nature of data set [10]: physchem. The conditions noted are these: pH 7.4, aqueous buffer, kinetic from dmso stock.
A short description of data set [11]: physchem. The conditions noted are these: simulated gastric fluid.
Data set [12] can be described thus: physchem. The conditions noted are these: fassgf or other biorelevant, kinetic from dmso stock.
Data set [13] in a line: B-A permeability (Caco-2, pH 6.5/7.4). Particulars: human, test conc. 1.0E−05M. On the technique in general: Caco-2 cells form a polarised layer with tight junctions and transporters.
Data set [14] in a line: physchem. The conditions noted are these: pH 7.4.
Data set [15] has as its target N-terminally truncated recombinant hDHODH enzyme (Homo sapiens, UniProt Q02127). Briefly: Human DHODH inhibition assay. In kind it is biochemical. The conditions noted are these: pH 8.0, 30° C. On the procedure:
Briefly, the hDHODH concentration was adjusted in a way that an average slope of approximately 0.2 AU/min served as the positive control (e.g. without inhibitor). […] The reaction was started by adding dihydroorotate and measuring the absorption at 600 nm for 2 min. For the determination of the IC50 values, each data point was recorded in triplicate. For the determination of the inhibitory constant Ki, the KM values for DHO and decylubichinon were determined. Afterwards, the compounds were diluted in a dilution series depending on their IC50 values in DMSO. The dilution was: 0 ×IC50 , 1/4×IC50 , 1/2×IC50 , 1×IC50 , 2×IC50 , 4×IC50 . […] Each data point was recorded in duplicate.

For data set [16] the following is noted: cited from earlier work.
Setting [17] is: metabolite in blood of mice after single oral 96.5 μmol/kg Example 2.
[18] abbreviates: SARS-COV-2 viral replication (YFP), read-out: EC50.
Setting [19] is: Caco-2, pH 6.5, Percent Recovery 1st.
[20] abbreviates: Caco-2, pH 6.5, Percent Recovery 2nd.
Where [21] appears, read: Caco-2, pH 6.5, Percent Recovery Mean.
[22] abbreviates: Caco-2, pH 6.5, Permeability 1st.
Where [23] appears, read: Caco-2, pH 6.5, Permeability 2nd.
Setting [24] is: Caco-2, pH 6.5, Permeability Mean.

N-terminally truncated recombinant hDHODH enzyme, sequence (Q02127 whole entry, looked up, the tested form may be a part): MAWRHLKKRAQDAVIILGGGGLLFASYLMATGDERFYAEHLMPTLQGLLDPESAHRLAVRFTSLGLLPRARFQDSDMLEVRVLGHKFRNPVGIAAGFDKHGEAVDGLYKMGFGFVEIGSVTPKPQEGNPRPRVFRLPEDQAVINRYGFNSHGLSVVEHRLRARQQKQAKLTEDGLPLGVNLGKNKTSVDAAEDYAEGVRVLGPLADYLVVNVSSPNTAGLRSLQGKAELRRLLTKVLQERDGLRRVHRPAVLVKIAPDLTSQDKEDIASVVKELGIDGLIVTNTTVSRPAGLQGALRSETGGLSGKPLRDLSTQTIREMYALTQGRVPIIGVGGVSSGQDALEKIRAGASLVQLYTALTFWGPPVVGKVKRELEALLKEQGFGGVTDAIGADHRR

For `C[N+](C)(C)CCOP(=O)(O)OP(=O)([O-])OC[C@H]1O[C@@H](n2ccc(NO)nc2=O)[C@H](O)[C@@H]1O` [Example 2, 2-(((((((2R,3S,4R,5R)-3,4-Dihydroxy-5-(4-(hydroxyamino)-2-oxopyrimidin-1 (2H)-yl)tetrahydrofuran-2-yl)methoxy) (hydroxy)phosphoryl)oxy)oxidophosphoryl)oxy)-N,N,N-trimethylethan-1-aminium triethylammonium salt], in data set [1] (mice, single oral 96.5 μmol/kg Example 2, not found in all blood samples), the “blood concentration of test item (lower limit of quantification)” value is < 14.4 nM.

Turning to `O=c1nc(NO)ccn1[C@@H]1O[C@H](COP(=O)(O)OP(=O)(O)OP(=O)(O)O)[C@@H](O)[C@H]1O` [NHC-TP, β-D-N^4-hydroxycytidine 5′-triphosphate, reference compound], in [1] (setting [17]), the maximal blood concentration is reported as 611+100 nM and the “time of maximal blood concentration post dose” value is 4 h.

On to `O=c1nc(NO)ccn1[C@@H]1O[C@H](COP(=O)(O)O)[C@@H](O)[C@H]1O` [NHC-MP], for which, in data set [1] (setting [17]), the “AUC (0-inf)” value was 1.624 µM·h, the elimination half-life worked out at 7.3 h, the maximal blood concentration is 274+41.4 nM and the “time of maximal blood concentration post dose” value turned out to be 0.5 h.

In [2], `O=c1nc(NO)ccn1[C@@H]1O[C@H](CO)[C@@H](O)[C@H]1O` [NHC, β-D-N^4-hydroxycytidine] showed a logD of 1.12. Besides, in data set [3], the “Solubility 1st” value was 349.99 µM (≈ 90.7 µg/mL), the “Solubility 2nd” value came to 362.05 µM (≈ 93.8 µg/mL) and the “Solubility Mean” value is > 200 µM.

Take `C[N+](C)(C)CCOP(=O)([O-])OP(=O)([O-])OC[C@H]1O[C@@H](n2ccc(N)nc2=O)[C@H](O)[C@@H]1O.[Na+]` [Example C1, Citicoline sodium, reference compound]: the CC50 in data set [4] was > 100 µM. In [5], the SI entry is “inactive”. Besides, in [5] (setting [18]), the EC50 was > 50 µM.

As for `[2H]C([2H])([2H])Oc1cccc(-c2cc(F)c(NC(=O)C3=C(C(=O)O)CCC3)c(F)c2)c1` [Example 51, 2-((3,5-Difluoro-3′-(methoxy-d3)-[1,1′-biphenyl]-4-yl)carbamoyl) cyclopent-1-ene-1-carboxylic acid], the CC50 in data set [4] is > 100 µM. The SI in data set [5] is recorded as >5. In addition, in [5] (setting [18]), the EC50 was < 20 µM.

`[2H]C([2H])([2H])Oc1cccc(-c2ccc(NC(=O)C3=C(C(=O)O)CCC3)c(F)c2)c1` [Example 50, 2-((3-Fluoro-3′-(methoxy-d3)-[1,1′-biphenyl]-4-yl)carbamoyl) cyclopent-1-ene-1-carboxylic acid]: the “RSV Virus Titers” value in [6] (Conc. 0.0079 μM) is 3.7 CCID50/mL (Log10); in data set [6] (Conc. 0.025 μM), 3.7 CCID50/mL (Log10); in [6] (Conc. 0.079 μM) it was 3.5 CCID50/mL (Log10); in data set [6] (Conc. 0.25 μM), 3.5 CCID50/mL (Log10); in data set [6] (Conc. 0.79 μM) it was 3.5 CCID50/mL (Log10); in data set [6] (Conc. 2.5 μM), 2.0 CCID50/mL (Log10). In addition, the “RSV Virus Titers” value in [6] (Conc. 7.9 μM) is given as 2.0 CCID50/mL (Log10); in data set [6] (Conc. 25 μM), <0.7 CCID50/mL (Log10). Also, the microsomal stability entry in [7] is listed as “improved”. The CC50 in data set [4] was > 100 µM. The EC50 in data set [5] is < 10 µM. Besides, the “HRV-14 Virus Titers” value in [8] (Conc. 0.0079 μM) is given as 6.7 CCID50/mL (Log10); in [8] (Conc. 0.025 μM) it was 6.7 CCID50/mL (Log10); in data set [8] (Conc. 0.079 μM), 7.0 CCID50/mL (Log10); in data set [8] (Conc. 0.25 μM), 6.7 CCID50/mL (Log10); in data set [8] (Conc. 0.79 μM), 6.7 CCID50/mL (Log10); in data set [8] (Conc. 2.5 μM) it was 7.0 CCID50/mL (Log10). Besides, the results for the “HRV-14 Virus Titers” value in data set [8] (Conc. 7.9 μM) and in data set [8] (Conc. 25 μM) were 4.0 CCID50/mL (Log10) and 3.5 CCID50/mL (Log10), respectively.

Take `CC(C)C(=O)OC[C@H]1O[C@@H](n2ccc(NO)nc2=O)[C@H](O)[C@@H]1O` [molnupiravir, reference compound]: the recovery at 10 µM turned out to be 70% in [9] (setting [19]); 71% in data set [9] (setting [20]); 71% in [9] (setting [21]); 90% in [13] (setting [19]); 89% in data set [13] (setting [20]); 89% in data set [13] (setting [21]). The Papp at 10 µM worked out at 0.19 ×10⁻⁶ cm/s in [9] (setting [22]); 0.13 ×10⁻⁶ cm/s in [9] (setting [23]); 0.2 ×10⁻⁶ cm/s in data set [9] (setting [24]); 0.26 ×10⁻⁶ cm/s in [13] (setting [22]); 0.27 ×10⁻⁶ cm/s in data set [13] (setting [23]); 0.3 ×10⁻⁶ cm/s in data set [13] (setting [24]). For the same compound, the solubility in data set [10] (Solubility 1st) was 247 µM (≈ 81.3 µg/mL); in data set [10] (Solubility 2nd), 291 µM (≈ 95.7 µg/mL); in [10] (Solubility Mean), > 200 µM; in data set [11] (Solubility 1st), 258 µM (≈ 84.9 µg/mL); in data set [11] (Solubility 2nd), 293 µM (≈ 96.4 µg/mL); in [11] (Solubility Mean), > 200 µM. The solubility in data set [12] (Solubility 1st) was 302 µM (≈ 99.3 µg/mL); in data set [12] (Solubility 2nd), 329 µM (≈ 108 µg/mL); in data set [12] (Solubility Mean) it was > 200 µM. In data set [14], the logD came out at 0.39.

Turning to `COc1cccc(C2=CCC=C(NC(=O)C3=C(C(=O)O)CCC3)C(F)=C2)c1` [Example C26], the Ki is 0.592 µM in [15] (substrate DHO varied, read-out: Ki (DHO)) and 0.245 µM in data set [15] (substrate decylubichinon varied, read-out: Ki (decylubichinon)).

With `O=c1nc(NO)ccn1[C@@H]1O[C@H](COP(=O)(O)OP(=O)(O)O)[C@@H](O)[C@H]1O` [NHC-DP, β-D-N^4-hydroxycytidine 5′-diphosphate], in data set [2], the log distribution coefficient (logD) is listed as 0.12.

Take `C[N+](C)(C)CCOP(=O)(O)OP(=O)([O-])OC[C@H]1O[C@@H](n2ccc(N)nc2=O)[C@H](O)[C@@H]1O` [Citicoline, cytidine 5′-diphosphocholine]: the oral bioavailability result in [16] was “more than 90%”.
